# From ChEMBL document CHEMBL5126640, “Sanggenon C Suppresses Tumorigenesis of Gastric Cancer by Blocking ERK-Drp1-Mediated Mitochondrial Fission” (J Nat Prod, 2022)
# Active and inactive are the calls of the source. No cut-off for these calls is given here.
# What was measured:
# [1] = Toxicity in nude mouse xenografted with human AGS cells assessed as effect on alanine aminotransferase level at 10 to 20 mg/kg, ip administered every other day and monitored every 3 days; format: organism-based; conditions: in vivo, 72 h, dose 10-20 mg/kg, time 3 day
# HGC-27 [2] = assay: Induction of cell cycle arrest in human HGC-27 cells assessed as accumulation of cells at G0/G1 phase at 10 uM incubated for 24 hrs propidium iodide staining-based flow cytometric analysis (reference value: 45.21%); format: functional
# HGC-27 [3] = assay: Induction of apoptosis in human HGC-27 cells transfected with pcDNA3.1-Drp1 plasmid to overexpress DRP1 assessed as viable cells measured after 24 hrs by AnnexinV-FITC/PI staining based flow cytometry method (reference value: 95.8%); format: functional
# [4] = Toxicity in nude mouse xenografted with human AGS cells assessed as effect on kidney morphology at 10 to 20 mg/kg, ip administered every other day and monitored every 3 days by Hematoxyin-eosin staining based analysis; format: organism-based; conditions: in vivo, 72 h, dose 10-20 mg/kg, time 3 day
# HGC-27 [5] = assay: Induction of apoptosis in human HGC-27 cells assessed as necrotic cells measured after 24 hrs by AnnexinV-FITC/PI staining based flow cytometry method (reference value: 0.1 %); format: functional
# HGC-27 [6] = assay: Induction of apoptosis in human HGC-27 cells assessed as early apoptotic cells at 10 uM measured after 24 hrs by AnnexinV-FITC/PI staining based flowcytometry method (reference value: 3.3%); format: functional
# HGC-27 [7] = assay: Inhibition of mitochondrial fission in human HGC-27 cells assessed as downregulation of p-DRP1 at 0 to 10 uM measured after 24 hrs by Western blot analysis; format: functional, cell-based; conditions: dose 0-10 µM
# AGS [8] = assay: Inhibition of mitochondrial fission in human AGS cells assessed as reduction in punctiform mitochondria at 0 to 6 uM measured after 24 hrs by mitotracker based confocal microscopy; format: functional; conditions: dose 0-6 µM
# HGC-27 [9] = assay: Induction of apoptosis in human HGC-27 cells assessed as viable cells at 6 uM measured after 24 hrs by AnnexinV-FITC/PI staining based flowcytometry method (reference value: 91.1%); format: functional; conditions: read-out: Activity
# HGC-27 [10] = assay: Induction of apoptosis in human HGC-27 cells transfected with pcDNA3.1-Drp1 plasmid to overexpress DRP1 assessed as necrotic cells measured after 24 hrs by AnnexinV-FITC/PI staining based flow cytometry method (reference value: 0%); format: functional
# AGS [11] = assay: Antitumor activity against human AGS cells xenografted in nude mouse assessed as downregulation of p-DRP1 levels at 10 to 20 mg/kg, ip administered every other day and monitored every 3 days; format: functional, organism-based; conditions: dose 10-20 mg/kg, time 3.0 day
# HGC-27 [12] = assay: Induction of apoptosis in human HGC-27 cells assessed as viable cells at 8 uM measured after 24 hrs by AnnexinV-FITC/PI staining based flowcytometry method (reference value: 91.1%); format: functional; conditions: read-out: Activity
# AGS [13] = assay: Induction of cell cycle arrest in human AGS cells assessed as accumulation of cells at G0/G1 phase at 10 uM incubated for 24 hrs propidium iodide staining-based flow cytometric analysis (reference value: 46.51%); format: functional
# AGS [14] = assay: Induction of apoptosis in human AGS cells assessed as upregulation of Bax level at 0 to 10 uM by Western blot analysis; format: functional, cell-based; conditions: dose 0-10 µM
# AGS [15] = assay: Inhibition of colony formation of human AGS cells assessed as reduction in colony number at 0 to 10 uM measured after 24 hrs by crystal violet staining assay; format: functional, cell-based; conditions: dose 0-10 µM
# AGS [16] = assay: Inhibition of mitochondrial fission in human AGS cells assessed as reduction in mitochondrial elongated fragments at 0 to 6 uM measured after 24 hrs by mitotracker based confocal microscopy; format: functional, cell-based; conditions: dose 0-6 µM
# HGC-27 [17] = assay: Induction of apoptosis in human HGC-27 cells assessed as early apoptotic cells measured after 24 hrs by AnnexinV-FITC/PI staining based flow cytometry method (reference value: 1.6%); format: functional
# HGC-27 [18] = assay: Induction of apoptosis in human HGC-27 cells assessed as increase in cleaved caspase-3 level at 0 to 10 uM by Western blot analysis; format: functional, cell-based; conditions: dose 0-10 µM
# AGS [19] = assay: Induction of apoptosis in human AGS cells assessed as early apoptotic cells at 8 uM measured after 24 hrs by AnnexinV-FITC/PI staining based flowcytometry method (reference value: 1.2%); format: functional
# HGC-27 [20] = assay: Induction of apoptosis in human HGC-27 cells assessed as necrotic cells at 8 uM measured after 24 hrs by AnnexinV-FITC/PI staining based flowcytometry method (reference value: 0.2%); format: functional
# HGC-27 [21] = assay: Inhibition of colony formation of human HGC-27 cells assessed as reduction in colony number at 0 to 10 uM measured after 24 hrs by crystal violet staining assay; format: functional, cell-based; conditions: dose 0-10 µM
# HGC-27 [22] = assay: Induction of mitochondrial dysfunction in human HGC-27 cells assessed as decrease in mitochondrial membrane potential measured after 24 hrs by JC-1 staining based flow cytometry; format: functional, cell-based; conditions: DDE = dose-dependent effect
# HGC-27 [23] = assay: Induction of apoptosis in human HGC-27 cells assessed as viable cells measured after 24 hrs by AnnexinV-FITC/PI staining based flow cytometry method (reference value: 96.6%); format: functional
# AGS [24] = assay: Induction of apoptosis in human AGS cells transfected with pcDNA3.1-Drp1 plasmid to overexpress DRP1 assessed as early apoptotic cells and measured after 24 hrs by AnnexinV-FITC/PI staining based flow cytometry method (reference value: 2.1 %); format: functional
# AGS [25] = assay: Induction of apoptosis in human AGS cells assessed as necrotic cells at 6 uM measured after 24 hrs by AnnexinV-FITC/PI staining based flowcytometry method (reference value: 0.2%); format: functional
# AGS [26] = assay: Induction of cell cycle arrest in human AGS cells assessed as decrease in Cyclin D1 level at 0 to 10 uM by Western blot analysis; format: functional, cell-based; conditions: dose 0-10 µM
# [27] = Toxicity in nude mouse xenografted with human AGS cells assessed as effect on liver morphology at 10 to 20 mg/kg, ip administered every other day and monitored every 3 days by Hematoxyin-eosin staining based analysis; format: organism-based; conditions: in vivo, 72 h, dose 10-20 mg/kg, time 3 day
# AGS [28] = assay: Inhibition of mitochondrial fission in human AGS cells assessed as reduction in ATP content at 0 to 10 uM measured after 24 hrs by microplate reader assay; format: functional, cell-based; conditions: dose 0-10 µM
# AGS [29] = assay: Induction of apoptosis in human AGS cells assessed as viable cells at 6 uM measured after 24 hrs by AnnexinV-FITC/PI staining based flowcytometry method (reference value: 95.2%); format: functional; conditions: read-out: Activity
# AGS [30] = assay: Induction of apoptosis in human AGS cells assessed as late apoptotic cells at 10 uM measured after 24 hrs by AnnexinV-FITC/PI staining based flowcytometry method (reference value: 3.4%); format: functional
# HGC-27 [31] = assay: Induction of apoptosis in human HGC-27 cells assessed as downregulation of Bcl-2 level at 0 to 10 uM by Western blot analysis; format: functional, cell-based; conditions: dose 0-10 µM
# HGC-27 [32] = assay: Induction of apoptosis in human HGC-27 cells assessed as early apoptotic cells at 8 uM measured after 24 hrs by AnnexinV-FITC/PI staining based flowcytometry method (reference value: 3.3%); format: functional
# AGS [33] = assay: Induction of apoptosis in human AGS cells assessed as late apoptotic cells at 8 uM measured after 24 hrs by AnnexinV-FITC/PI staining based flowcytometry method (reference value: 3.4%); format: functional
# AGS [34] = assay: Induction of apoptosis in human AGS cells assessed as viable cells at 8 uM measured after 24 hrs by AnnexinV-FITC/PI staining based flowcytometry method (reference value: 95.2%); format: functional; conditions: read-out: Activity
structure (smiles),measurement,setting,value
CC(C)=CCC12Oc3cc(O)ccc3C1(O)Oc1cc(O)c([C@H]3C=C(C)C[C@H](c4ccc(O)cc4O)[C@H]3C(=O)c3ccc(O)cc3O)c(O)c1C2=O (some centres undefined),Activity,[1],Non-Toxic
same,Activity,HGC-27 [2],64.2%
same,Activity,HGC-27 [3],95.4%
same,Activity,[4],Non-Toxic
same,Activity,HGC-27 [5],0.4%
same,Activity,HGC-27 [6],10.3%
same,inhibition,HGC-27 [7],Active
same,inhibition,AGS [8],Active
same,viability at 6 µM,HGC-27 [9],84.2%
same,Activity,HGC-27 [10],0.4%
same,Activity,AGS [11],Active
same,viability at 8 µM,HGC-27 [12],83.1%
same,Activity,AGS [13],55.9%
same,Activity,AGS [14],Active
same,inhibition,AGS [15],Active
same,inhibition,AGS [16],Active
same,Activity,HGC-27 [17],4.3%
same,Activity,HGC-27 [18],Active
same,Activity,AGS [19],2.1%
same,Activity,HGC-27 [20],1.8%
same,inhibition,HGC-27 [21],Active
same,Activity,HGC-27 [22],Dde
same,Activity,HGC-27 [23],91.3%
same,Activity,AGS [24],2.8%
same,Activity,AGS [25],0.2%
same,Activity,AGS [26],Active
same,Activity,[27],Non-Toxic
same,inhibition,AGS [28],Active
same,viability at 6 µM,AGS [29],90.1%
same,Activity,AGS [30],15.3%
same,Activity,HGC-27 [31],Active
same,Activity,HGC-27 [32],4%
same,Activity,AGS [33],7.9%
same,viability at 8 µM,AGS [34],89.8%
